Measurements taken from patent US20250073358A1, “AROMATIC VINYL COMPOUND, METAL COMPLEX THEREOF, AND PREPARATION METHOD THEREFOR AND USE THEREOF” (SHANGHAI MAXINOVEL PHARMACEUTICALS CO., LTD., priority 2021, published 2025).
pIC50: −log10 of the molar value.

Tests used:
[1] = biological target: PD-1/PD-L1 (Homo sapiens (Human), UniProt Q9NZQ7); experiment: Homogenouse Time-Resolved Fluorescence (HTRF) binding assay, PD-1/PD-L1
Method: Homogenouse Time-Resolved Fluorescence (HTRF) binding assay was used to detect the binding ability of the compound of the present disclosure to PD-1/PD-L1.
The purchased kit (CisBio, #64CUS000C-1) contains reagents required for experiments such as PD-1, PD-L1, anti-tag1-Eu, Anti-tag2-XL665, Dilute Buffer, and Detection Buffer.
• 1. The compound was configured with 100% DMSO into 10 concentrations with a concentration gradient of 3 times. • 2. The DMSO solution of the compound was added to Dilute Buffer solution, and the mixture was mixed well and transferred to a 96-well plate. • 3. PD-L1 was diluted with Dilute Buffer solution and then added to the above 96-well plate. • 4. PD-1 was diluted with Dilute Buffer solution and then added to the above 96-well plate, and incubated at room temperature for 30 minutes. • 5. One part of anti-tag1-Eu and one part of Anti-tag2-XL665 were added to Detection Buffer solution, and the mixture was mixed well and transferred to the above 96-well plate. • 6. The mixture in the 96-well plate was incubated at room temperature for 1 to 24 hours. • 7. The HTRF values were read with Envision.

[2] = system: MC38-PDL1 tumor (MC-38-hPD-L1 cells); experiment: Tumor targeting study in Micro-PET/CT scanning, bilateral tumor model (Effect Embodiment 4), left tumor; format: in vivo, C57BL/6J mice; details: Micro-PET/CT imaging, bilateral tumor mice
Method: • Tumor targeting study of compound 80 in Micro-PET/CT scanning • Experimental animal information: C57BL/6J mice, SPF grade; 15-21 g; • Construction of Bilateral Tumor Model Mice: • Cell Culture
(§1) Human-derived PD-L1 gene knock-in MC-38 cells (MC-38-hPD-L1 cells) were adherently cultured in vitro, and the culture conditions were DMEM medium plus 10% heat-inactivated fetal bovine serum and hygromycinB (final concentration was […]), and the cells were cultured at 37° C. with 5% CO2. Subculture of 2-3 times a week. When the cells were in the exponential growth phase, the cells were harvested, counted, and the left side of the mice was inoculated subcutaneously.
(§2) Mouse-derived MC-38 cells were adherently cultured in vitro, and the culture conditions were DMEM medium plus 10% heat-inactivated fetal bovine serum, and the cells were cultured at 37° C. with 5% CO2. Subculture of 2-3 times a week. When the cells were in the exponential growth phase, the cells were collected, counted, and the right side of the mice was inoculated subcutaneously.
(§3) 100 μL of 1×10^6 MC-38-hPD-L1 cell suspension was inoculated subcutaneously on the left dorsal side of C57BL/6J mice. The same mice were subcutaneously inoculated with 100 μL of 1×10^6 MC-38 cell suspension on the right dorsal side on the second day. After inoculation, the mice were fed normally, and after a certain number of days, tumor-bearing mice with the volume of bilateral transplanted tumor in the range of 150 mm^3−350 mm^3 were selected for test.
(§4) After quality control, compound 80 was diluted with 10% ethanol in physiological saline, and the drug was extracted and injected into each animal through tail vein. The administration volume was 100 μL/animal, and the administration dose was 100-200 μCi/animal. The study of Micro-PET/CT imaging was performed at 0.5 h, 1.5 h, 2.5 h, 3.5 h after injection of compound 80.

[3] = system: MC38-PDL1 tumor (MC-38-hPD-L1 cells); experiment: Tumor targeting study in Micro-PET/CT scanning, bilateral tumor model (Effect Embodiment 3), left tumor; format: in vivo, C57BL/6J mice; details: Micro-PET/CT imaging, bilateral tumor mice
Excerpt: Tumor targeting study of compound 79 in Micro-PET/CT scanning 1. Experimental animal information: C57BL/6J mice, SPF grade; 15-21 g; model mouse construction: bilateral tumor • Construction of bilateral tumor model mice • Cell culture
as §1, §2, §3
as §4, with “79” for “80”, “79.” for “80.”

Sequence of PD-1/PD-L1 (Q9NZQ7 19-238): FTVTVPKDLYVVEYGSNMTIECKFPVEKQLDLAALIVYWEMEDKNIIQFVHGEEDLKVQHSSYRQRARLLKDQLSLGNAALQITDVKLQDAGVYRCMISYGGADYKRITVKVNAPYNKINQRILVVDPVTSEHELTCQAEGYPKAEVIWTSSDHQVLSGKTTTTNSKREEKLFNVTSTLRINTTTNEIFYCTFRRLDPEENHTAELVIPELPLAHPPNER

Row | Structure (SMILES) | pIC50 [1] | uptake value of left tumor (MC38-PDL1) compared with right tumor (MC38) [2] | uptake value of left tumor (MC38-PDL1) compared with right tumor (MC38) [3]
1 | Cc1c(/C=C/c2cc(OCCOCCN3CCN(CC(=O)O)CCN(CC(=O)O)CCN(CC(=O)O)CC3)c(CN3CCCC[C@H]3C(=O)O)cc2C(F)(F)F)cccc1-c1ccccc1 [Compound 7] | 9.01 | significantly higher | –
2 | Cc1c(/C=C/c2cc(OCCCCNC(=O)CN3CCN(CC(=O)O)CCN(CC(=O)O)CCN(CC(=O)O)CC3)c(CN3CCCC[C@H]3C(=O)O)cc2C(F)(F)F)cccc1-c1ccccc1 [Compound 8] | 9.28 | significantly higher | –
3 | Cc1ccc(CCCC(=O)NCCCC[C@H](NC(=O)CN2CCN(CC(=O)O)CCN(CC(=O)O)CCN(CC(=O)O)CC2)C(=O)NCCCCCCOc2cc(/C=C/c3cccc(-c4ccccc4)c3C)c(C(F)(F)F)cc2CN2CCCC[C@H]2C(=O)O)cc1 [Compound 27] | 7.87 | significantly higher | –
4 | Cc1c(/C=C/c2cc(OCCCCCCNC(=O)CN3CCN(CC(=O)[O-])CCN(CC(=O)[O-])CCN(CC(=O)[O-])CC3)c(CN3CCCC[C@H]3C(=O)O)cc2C(F)(F)F)cccc1-c1ccccc1.[Ga+3] [Compound 28] | 9.25 | significantly higher | –
5 | Cc1c(/C=C/c2cc(OCCNC(=O)C3CCC(CNC(=O)CN4CCN(CC(=O)O)CCN(CC(=O)O)CCN(CC(=O)O)CC4)CC3)c(CN3CCCC[C@H]3C(=O)O)cc2C(F)(F)F)cccc1-c1ccccc1 (stereo partly shown) [Compound 35] | 9.12 | significantly higher | –
6 | Cc1c(/C=C/c2cc(OCCNC(=O)C3CCN(C(=O)CN4CCN(CC(=O)O)CCN(CC(=O)O)CCN(CC(=O)O)CC4)CC3)c(CN3CCCC[C@H]3C(=O)O)cc2C(F)(F)F)cccc1-c1ccccc1 [Compound 36] | 9.28 | significantly higher | –
7 | Cc1c(/C=C/c2cc(OCC3CCN(C(=O)CN4CCN(CC(=O)O)CCN(CC(=O)O)CCN(CC(=O)O)CC4)CC3)c(CN3CCCC[C@H]3C(=O)O)cc2C(F)(F)F)cccc1-c1ccccc1 [Compound 37] | 9.14 | significantly higher | –
8 | N#Cc1c(-c2ccccc2)ccnc1/C=C/c1cc(OCCCCCN2CCN(CC(=O)[O-])CCN(CC(=O)[O-])CC2)c(CN2CCCC[C@H]2C(=O)O)cc1C(F)(F)F.[Al+3].[F-] [Compound 58] | – | – | significantly higher
9 | N#Cc1c(-c2ccccc2)ccnc1/C=C/c1cc(OCC2CCN(C(=O)CN3CCN(CC(=O)[O-])CCN(CC(=O)[O-])CC3)CC2)c(CN2CCCC[C@H]2C(=O)O)cc1C(F)(F)F.[Al+3].[F-] [Compound 60] | – | – | significantly higher
10 | Cc1c(/C=C/c2cc(OCCCCNC(=O)CN3CCN(CC(=O)[O-])CCN(CC(=O)[O-])CC3)c(CN3CCCC[C@H]3C(=O)O)cc2C(F)(F)F)cccc1-c1ccccc1.[Al+3].[F-] [Compound 62] | 9.28 | – | significantly higher
11 | Cc1c(/C=C/c2cc(OCCCNC(=O)CN3CCN(CC(=O)O)CCN(CC(=O)O)CC3)c(CN3CCCC[C@H]3C(=O)O)cc2C(F)(F)F)cccc1-c1ccccc1 [Compound 64] | 9.15 | – | significantly higher
12 | Cc1c(/C=C/c2cc(OCCOCCN3CCN(CC(=O)[O-])CCN(CC(=O)[O-])CCN(CC(=O)[O-])CC3)c(CN3CCCC[C@H]3C(=O)O)cc2C(F)(F)F)cccc1-c1ccccc1.[68Ga+3] [Compound 75] | – | significantly higher | –
13 | COc1cc(C(=O)Nc2cccc(-c3cccc(/C=C/c4cc(OCCOCCN5CCN6CCN(CC5)CC(=O)[O][Al]([F])[O]C(=O)C6)c(CN5CCCC[C@H]5C(=O)O)cc4C(F)(F)F)c3C)c2C)ncc1CN1CCCC[C@H]1C(=O)O [Compound 82] | – | – | significantly higher
